Source: article PMC10604565, “Modified CLEC3A-Derived Antimicrobial Peptides Lead to Enhanced Antimicrobial Activity against Drug-Resistant Bacteria” (Antibiotics, 2023)
Read-outs that look alike come from different tables or passages of the source. Non-standard residues stand in square brackets, D forms with d. Residues, ends and D or L forms follow the SMILES beside them. No end group written: not given here.

Key:
[1] = system: P. aeruginosa; type: cell-based, Pseudomonas aeruginosa (Psae-27853); conditions: 2 h, pH 7.4
Experimental: (§1) Pseudomonas aeruginosa (Psae-27853), Staphylococcus aureus (ATCC-29213), and methicillin-resistant Staphylococcus aureus (MRSA-43300) were used. Bacteria were cultivated in tryptic soy broth (TSB) (Merck, Darmstadt, Germany) at 37 °C and 225rpm or on TSB–agarose plates at 37 °C.
(§2) Bacteria were grown to an OD620 of 0.5, harvested by centrifugation, and washed with tris-glucose buffer (TG buffer: 10 mM tris, 5 mM glucose; pH = 7.4) (P. aeruginosa and S. aureus) or phosphate–glucose buffer (PG buffer: 10 mM K2HPO4, 5 mM glucose; pH = 7.4) (MRSA). Bacteria were adjusted to 2 × 10^6 colony forming units (CFU)/mL and were incubated in 1:2 dilutions for 2 h at 37 °C with CLEC3A-derived and modified CLEC3A-derived peptides in TG buffer or PG buffer. The known AMP LL-37 was used as a positive control, while the CLEC3A-derived peptides ST-16 (Ctrl 1) and DK-29 (Ctrl 2) and untreated bacteria were used as negative controls. The bacteria were then plated onto TSB–agarose plates in previously determined dilutions and cultured overnight at 37 °C. The number of grown colonies was determined with the ImageJ cell counter plugin and is presented as a percentage of the number of grown colonies from the untreated control. The minimal inhibitory concentration (MIC50) was defined as the concentration of antimicrobial peptide where only 50% of bacteria survived. Used peptide concentrations are provided in Supplementary Table S1.
(§3) Statistical analysis of results was performed with Prism 9.3.1 (471) (GraphPad, San Diego, CA, USA). All tables and graphs show calculated averages and standard deviations obtained from three individual experiments. Bar charts of the MIC50 include numerical values with confidence intervals (95%) as the legend. Statistical significance was determined with a paired ANOVA test followed by a Dunnett test and multiple comparisons, comparing each peptide with the respective parent peptide HT-16, HT-47, or WRK-30 as indicated in the figure captions.

[2] = system: S. aureus; type: cell-based, Staphylococcus aureus (ATCC-29213); conditions: 2 h, pH 7.4
Experimental: as §1, §2, §3

[3] = system: MRSA; type: cell-based, methicillin-resistant Staphylococcus aureus (MRSA-43300)
Experimental: as §1, §2, §3

[4] = system: primary human cartilage cells; conditions: cited from earlier work
[5] = system: NIH3T3 cells (murine fibroblasts); test: Cytotoxicity assay (MTS); type: cell-based
Experimental: NIH3T3 cells (murine fibroblasts), obtained from Prof. Dr. Wielckens, were seeded and precultured overnight. For 24 h incubation with peptides, a density of 1 × 10^4 cells/well and for 96 h incubation with peptides a density of 5 × 10^3 cells/well was used. After preculturing, the culture medium was replaced and cells were incubated with a peptide-containing medium for 24 h and 96 h. Afterward, the peptide-containing medium was removed and cells were washed with PBS before adding CellTiter 96® AQueous One Solution (Promega, Madison, WI, USA) containing 3-(4,5-dimethylthiazol-2-yl)-5-(3-carboxymethoxyphenyl)-2-(4-sulfophenyl)-2H-tetrazolium (MTS) to the culture medium. Cells incubated with peptides for 24 h were incubated with MTS medium for 1 h at 37 °C, and absorbance was measured at 490 nm. Cells incubated with peptides for 96 h were incubated with MTS medium for 2 h at 37 °C before measuring the absorbance. Samples were measured in triplicates, and the cell viability of three individual experiments is presented as a percentage of the measured OD from the untreated control. As further controls, vancomycin (final concentration 7.35 µg/mL), colistin (final concentration 147 µg/mL), and 1% TritonX in culture medium were used. Used peptide concentrations are provided in Supplementary Table S2.

[6] = system: gram-positive and gram-negative bacteria; conditions: cited from earlier work
Excerpt: We assessed the antimicrobial activity of the modified CLEC3A-derived peptides using an antimicrobial activity assay and determined their MIC50 (Figure 2). We used the well-investigated AMP LL-37 as a positive control. As negative controls, we used ST-16 (Ex1z), which corresponds to HT-16 with an abolished positive charge, and DK-29 (Ex2), which is solely the amphipathic α-helix of HT-47 without the positive charge of the N-terminus. […] First, we investigated the antimicrobial activity of the peptides modified from HT-16: RK-9 and ...

[7] = Biostability assay in murine serum; type: in vitro ADME, murine (C57BL6/N); conditions: 30 µM peptide, room temperature; for Time for which the peptide was detectable in murine serum: pooled murine serum (C57BL6/N), samples 5 min, 10 min, n = 3
Experimental: The peptides (HT-47, WRK-30, and dWRK-30) were mixed with pooled murine serum, obtained from C57BL6/N wildtype mice via cardiac puncture immediately after death by cervical dislocation (the procedure was approved by the local government authority LANUV under permit no. UniKöln_Anzeige§4.22.001), to a final concentration of 30 µM. In parallel, a control with water and pooled murine serum was prepared. Both mixtures were incubated at room temperature, and samples were taken at the time points indicated in Supplementary Table S3. The samples were immediately added to a Novex Tricine SDS Sample Buffer containing a NuPage Sample Reducing Agent and incubated at 85 °C for 2 min. Boiled samples were stored at 4 °C. After the collection of all time points, samples were separated into 10–20% Tricine Gels. Gels with HT-47 and WRK-30 were subsequently transferred onto PVDF membranes (0.2 µm pore size) and immunoblot analysis with 1:200 dilutions of a custom-ordered and affinity-purified rabbit anti-WRK-30 (Eurogentec, Seraing, Belgium) antibody was performed. Gels with dWRK-30 were stained with Coomassie brilliant blue.

[8] = HT-47: immunoblot (anti-WRK-30), 6 h, 8 h, dWRK-30: SDS-PAGE, Coomassie, 24 h, 96 h

Row | Compound | P. aeruginosa MIC50 [1] | S. aureus MIC50 [2] | MRSA MIC50 ([3]; 2 h, pH 7.4) | also measured
1 | RKHSKRRVR [RK-9] | 4.17 ± 0.69 µM | 1.62 ± 2.67 µM | – | –
2 | RKHSKRRVRGGGLKTQIEKLWTEVNALKEI [RK-30] | 2.64 ± 1.79 µM | 0.63 ± 0.68 µM | 4.51 ± 3.81 µM | –
3 | WRKHSKRRVRDKDGDLKTQIEKLWTEVNALKEI [WRK-31] | – | 1.03 ± 0.30 µM | – | –
4 | HTSRLKARKHSKRRVR [HT-16] | 0.51 ± 0.11 µM | 0.24 ± 0.13 µM | 9.25 ± 6.25 µM | Toxic effects to primary human cartilage cells [4]: no toxic effects; Cytotoxicity towards murine fibroblasts, overall statement [5]: does not show any signs of cytotoxicity
5 | STSQLQAQQSSQQQVQ [ST-16, negative control, corresponds to HT-16 with abolished positive charge] | – | – | – | Antimicrobial activity of negative control peptides (in words) [6]: Neither ST-16 nor DK-29 display any antimicrobial activity
6 | CC[C@H](C)[C@H](NC(=O)[C@H](CCCCN)NC(=O)[C@H](CCC(=O)O)NC(=O)[C@H](CCCCN)NC(=O)[C@H](CO)NC(=O)[C@H](CCCCN)NC(=O)[C@H](CCCNC(=N)N)NC(=O)[C@H](Cc1ccccc1)NC(=O)[C@H](Cc1ccccc1)NC(=O)[C@H](CC(=O)O)NC(=O)CNC(=O)[C@H](CC(C)C)NC(=O)[C@@H](N)CC(C)C)C(=O)NCC(=O)N[C@@H](CCCCN)C(=O)N[C@@H](CCC(=O)O)C(=O)N[C@@H](Cc1ccccc1)C(=O)N[C@@H](CCCCN)C(=O)N[C@@H](CCCNC(=N)N)C(=O)N[C@H](C(=O)N[C@H](C(=O)N[C@@H](CCC(N)=O)C(=O)N[C@@H](CCCNC(=N)N)C(=O)N[C@H](C(=O)N[C@@H](CCCCN)C(=O)N[C@@H](CC(=O)O)C(=O)N[C@@H](Cc1ccccc1)C(=O)N[C@@H](CC(C)C)C(=O)N[C@@H](CCCNC(=N)N)C(=O)N[C@@H](CC(N)=O)C(=O)N[C@@H](CC(C)C)C(=O)N[C@H](C(=O)N1CCC[C@H]1C(=O)N[C@@H](CCCNC(=N)N)C(=O)N[C@H](C(=O)N[C@@H](CCC(=O)O)C(=O)N[C@@H](CO)C(=O)O)[C@@H](C)O)C(C)C)[C@@H](C)CC)C(C)C)[C@@H](C)CC [LL-37, reference compound] | – | – | – | MRSA MIC50 ([3]; Figure 2c series, 2 × 10^6 CFU/mL, 2 h at 37 °C in PG buffer pH 7.4, plating and colony count, n = 3, ± confidence interval (95%), na: not applicable): 2.40 ± 0.42 µM; MRSA MIC50 ([3]; Figure 3c series, 2 × 10^6 CFU/mL, 2 h at 37 °C in PG buffer pH 7.4, n = 3, ± confidence interval (95%), na: not applicable): 2.63 ± 1.21 µM; MRSA MIC50 ([3]; Figure 8c series, 2 × 10^6 CFU/mL, 2 h at 37 °C in PG buffer pH 7.4, n = 3, ± confidence interval (95%)): 0.52 ± 0.64 µM; Cytotoxicity to NIH3T3 cells, 24 h (in words) ([5]; Figure 5A, 0.3, 3 and 30 µM peptide, 24 h, MTS, absorbance 490 nm, % of untreated control, n = 3): cytotoxic effects
7 | WRKHSKRRVRGGGLKTQIEKLWTEVNALKEI [WRK-30] | – | – | – | Time for which the peptide was detectable in murine serum ([7]; immunoblot (anti-WRK-30), 30 min, 1 h): up to 30 min
8 | WRKHSKRRVR [WRK-9] | 0.96 ± 0.46 µM | 0.56 ± 0.72 µM | – | –
9 | DKDGDLKTQIEKLWTEVNALKEIQALQTVCL [DK-29, negative control, solely the amphipathic α-helix of HT-47 without the positive charge of the N-terminus] | – | – | – | Antimicrobial activity of negative control peptides (in words) [6]: Neither ST-16 nor DK-29 display any antimicrobial activity
10 | CC[C@@H](C)[C@@H](NC(=O)[C@@H](CCC(=O)O)NC(=O)[C@@H](CCCCN)NC(=O)[C@@H](CC(C)C)NC(=O)[C@@H](C)NC(=O)[C@@H](CC(N)=O)NC(=O)[C@H](NC(=O)[C@@H](CCC(=O)O)NC(=O)[C@H](NC(=O)[C@@H](Cc1c[nH]c2ccccc12)NC(=O)[C@@H](CC(C)C)NC(=O)[C@@H](CCCCN)NC(=O)[C@@H](CCC(=O)O)NC(=O)[C@H](NC(=O)[C@@H](CCC(N)=O)NC(=O)[C@H](NC(=O)[C@@H](CCCCN)NC(=O)[C@@H](CC(C)C)NC(=O)CNC(=O)CNC(=O)CNC(=O)[C@@H](CCCNC(=N)N)NC(=O)[C@H](NC(=O)[C@@H](CCCNC(=N)N)NC(=O)[C@@H](CCCNC(=N)N)NC(=O)[C@@H](CCCCN)NC(=O)[C@@H](CO)NC(=O)[C@@H](Cc1c[nH]cn1)NC(=O)[C@@H](CCCCN)NC(=O)[C@@H](CCCNC(=N)N)NC(=O)[C@H](N)Cc1c[nH]c2ccccc12)C(C)C)[C@H](C)O)[C@H](C)CC)[C@H](C)O)C(C)C)C(=O)O [dWRK-30] (H-[dW][dR][dK][dH][dS][dK][dR][dR][dV][dR]GGG[dL][dK][dT][dQ][dI][dE][dK][dL][dW][dT][dE][dV][dN][dA][dL][dK][dE][dI]-OH) | 1.46 ± 1.55 µM | 0.66 ± 0.36 µM | 2.34 ± 0.39 µM | Time for which the peptide was detectable in murine serum [7, 8]: up to 96 h
11 | HTSRLKARKHSKRRVRDKDGDLKTQIEKLWTEVNALKEIQALQTVCL [HT-47] | – | – | 9.88 ± 2.43 µM | Time for which the peptide was detectable in murine serum [7, 8]: up to 8 h; Detection in murine serum after 24 h (in words) ([7]; pooled murine serum, immunoblot, 24 h (not shown)): disappeared; Toxic effects to primary human cartilage cells [4]: no toxic effects
12 | RKHSKRRVRDKDGDLKTQIEKLWTEVNALKEI [RK-31] | – | 4.85 ± 3.10 µM | – | –
